From ChEMBL document CHEMBL5725332, “Quinazoline derivative” (2017)

Assay: Luciferase Assay: Using ONE-Glo Luciferase Assay System (Promega Corporation, No. E6110), the luciferase activity of the cells in the wells was measured by a microplate reader (Synergy H1, BioTek Instruments, Inc.) An IC50 value was calculated from the luminescence intensity of each compound concentration, supposing that the luminescence intensity of a group with no addition of the compound and with Wnt-3a stimulation was 100%, and that the luminescence intensity of a group with no addition of the compound and with no Wnt-3a stimulation was 0%.
Conditions: Homo sapiens

Compound	IC50
Cc1nc2ccc(Nc3ncc4ccc(Br)c(O[C@H]5CC[C@@H](O)CC5)c4n3)cc2[nH]1	in the range around 650 nM
O[C@H]1CC[C@@H](Oc2cccc3cnc(Nc4ccnc5ccccc45)nc23)CC1	< 300 nM
Cc1nc2c(C)cc(Nc3ncc4cccc(O[C@H]5CC[C@@H](O)CC5)c4n3)cc2[nH]1	in the range around 650 nM
COc1ccc2c(Nc3ncc4cccc(O[C@H]5CC[C@@H](O)CC5)c4n3)ccnc2c1	in the range around 650 nM
OCc1n[nH]c2cc(Nc3ncc4ccc(F)c(O[C@H]5CC[C@@H](O)CC5)c4n3)ccc12	< 300 nM
O[C@H]1CC[C@@H](Oc2cccc3cnc(Nc4ccnc5cc(F)ccc45)nc23)CC1	in the range around 650 nM
O[C@H]1CC[C@@H](Oc2cccc3cnc(Nc4cccc5cnccc45)nc23)CC1	in the range around 650 nM
O[C@H]1CC[C@@H](Oc2c(F)ccc3cnc(Nc4ccc5ncsc5c4)nc23)CC1	< 300 nM
O[C@H]1CC[C@@H](Oc2c(F)ccc3cnc(Nc4ccc5ncccc5c4)nc23)CC1	< 300 nM
Cc1nc2c(Br)cc(Nc3ncc4cccc(O[C@H]5CC[C@@H](O)CC5)c4n3)cc2[nH]1	in the range around 2000 nM
O[C@H]1CC[C@@H](Oc2cccc3cnc(Nc4ccc5[nH]c(CN6CCCC6)nc5c4)nc23)CC1	< 300 nM

Further lines, results first:

IC50	Compound
in the range around 650 nM	O[C@H]1CC[C@@H](Oc2cc(F)cc3cnc(Nc4ccc5nc[nH]c5c4)nc23)CC1
< 300 nM	O[C@H]1CC[C@@H](Oc2c(Br)ccc3cnc(Nc4ccc5nc[nH]c5c4)nc23)CC1
< 300 nM	O[C@H]1CC[C@@H](Oc2cccc3cnc(Nc4ccc5scnc5c4)nc23)CC1
in the range around 2000 nM	O[C@H]1CC[C@@H](Oc2cccc3cnc(Nc4ccc5ccncc5c4)nc23)CC1
in the range around 650 nM	OCc1nc2cc(Nc3ncc4cccc(O[C@H]5CC[C@@H](O)CC5)c4n3)ccc2[nH]1
< 300 nM	OCc1cc(Nc2ncc3cccc(O[C@H]4CC[C@@H](O)CC4)c3n2)cc2[nH]cnc12
in the range around 650 nM	Cc1cc2nc[nH]c2cc1Nc1ncc2cccc(O[C@H]3CC[C@@H](O)CC3)c2n1
in the range around 650 nM	O[C@H]1CC[C@@H](Oc2cccc3cnc(Nc4ccc5cnccc5c4)nc23)CC1
< 300 nM	O[C@H]1CC[C@@H](Oc2cccc3cnc(Nc4ccc5nc[nH]c5c4)nc23)CC1
in the range around 650 nM	O[C@H]1CC[C@@H](Oc2cccc3cnc(Nc4ccc5ncccc5c4)nc23)CC1
in the range around 650 nM	Cc1ccc2cc(Nc3ncc4cccc(O[C@H]5CC[C@@H](O)CC5)c4n3)ccc2n1
in the range around 650 nM	C[C@H](O)c1nc2ccc(Nc3ncc4cccc(O[C@H]5CC[C@@H](O)CC5)c4n3)cc2[nH]1
in the range around 650 nM	Cc1ccc2cnc(Nc3ccc4nc[nH]c4c3)nc2c1O[C@H]1CC[C@@H](O)CC1
in the range around 2000 nM	O[C@H]1CC[C@@H](Oc2cccc3cnc(Nc4ccc5nc(C(F)(F)F)[nH]c5c4)nc23)CC1
in the range around 650 nM	COCc1nc2ccc(Nc3ncc4cccc(O[C@H]5CC[C@@H](O)CC5)c4n3)cc2[nH]1
